Some results are limits rather than exact numbers.

The assay has as its system BJAB cells. Nature of the assay: BJAB cell proliferation (Cell Titer Glo). The note with it: Homo sapiens, read-out: EC50. It is filed as cell-based. Put shortly:
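EC50 values come from non-linear regression of luminescence (Cell Titer Glo), expressed relative to untreated wells. BJAB cells were incubated roughly 72 h at 37 °C with serial compound dilutions carrying 0.1% final DMSO.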

With `Cc1nn(-c2nc(-c3ccc(Cl)c(Cl)c3)c(SC(C)C)s2)c(C(=O)O)c1-c1ccccc1Cl` [Compound 111, 4-(2-chlorophenyl)-1-(4-(3,4-dichlorophenyl)-5-(isopropylthio)thiazol-2-yl)-3-methyl-1H-pyrazole-5-carboxylic acid], the EC50 lay within 10 to 25 µM. As for `Cc1nn(-c2nc(-c3ccc(Cl)c(Cl)c3)c(SC(C)C)s2)c(C(=O)O)c1-c1c[nH]c2ccccc12` [Compound 110, 1-(4-(3,4-dichlorophenyl)-5-(isopropylthio)thiazol-2-yl)-4-(1H-indol-3-yl)-3-methyl-1H-pyrazole-5-carboxylic acid], the concentration for a half-maximal effect (EC50) fell in the range of 10 to 25 µM.

For `COc1cccc(-c2c(C)nn(-c3nc(-c4ccc(Cl)c(Cl)c4)c(SC(C)C)s3)c2C(=O)O)c1` [Compound 115, 1-(4-(3,4-dichlorophenyl)-5-(isopropylthio)thiazol-2-yl)-4-(3-methoxyphenyl)-3-methyl-1H-pyrazole-5-carboxylic Acid], the EC50 was in the range of 1 to 5 µM.

Take `Cc1nn(-c2nc(-c3cc(F)c(Cl)c(F)c3)c(SC(C)C)s2)c(C(=O)O)c1-c1cccc(F)c1` [Compound 193, 1-(4-(4-chloro-3,5-difluorophenyl)-5-(isopropylthio)thiazol-2-yl)-4-(3-fluorophenyl)-3-methyl-1H-pyrazole-5-carboxylic Acid]: the EC50 is 1 to 5 µM. As to `Cc1nn(-c2nc(-c3ccc(Cl)c(Cl)c3)c(SC(C)C)s2)c(C(=O)O)c1-c1cnc2ccccn12` [Compound 149, 1-(4-(3,4-dichlorophenyl)-5-(isopropylthio)thiazol-2-yl)-4-(imidazo[1,2-a]pyridin-3-yl)-3-methyl-1H-pyrazole-5-carboxylic acid], the EC50 fell in the range of 5 to 10 µM. The figure for `Cc1cc(-c2c(C)nn(-c3nc(-c4ccc(Cl)c(Cl)c4)c(SC(C)C)s3)c2C(=O)O)cc(-n2ccnc2)c1` [Compound 100, 4-(3-(1H-imidazol-1-yl)-5-methylphenyl)-1-(4-(3,4-dichlorophenyl)-5-(isopropylthio)thiazol-2-yl)-3-methyl-1H-pyrazole-5-carboxylic Acid] is 1 to 5 µM. Regarding `Cc1nn(-c2nc(-c3ccc(Cl)c(Cl)c3)c(SC(C)C)s2)c(C(=O)O)c1-c1cccc(CN(C)C)c1` [Compound 87, 1-(4-(3,4-dichlorophenyl)-5-(isopropylthio)thiazol-2-yl)-4-(3-((dimethylamino)methyl)phenyl)-3-methyl-1H-pyrazole-5-carboxylic acid], the EC50 is over 25 µM. The figure for `Cc1cc(OC2COC2)cc(-c2c(C)nn(-c3nc(-c4ccc(Cl)c(Cl)c4)c(SC(C)C)s3)c2C(=O)O)c1` [Compound 98, 1-(4-(3,4-dichlorophenyl)-5-(isopropylthio)thiazol-2-yl)-3-methyl-4-(3-methyl-5-(oxetan-3-yloxy)phenyl)-1H-pyrazole-5-carboxylic Acid] is 1 to 5 µM. As to `CCCCSc1sc(-n2nc(C)c(Cc3ccccc3[N+](=O)[O-])c2C(=O)O)nc1-c1ccc(Cl)c(Cl)c1` [Compound 12, 1-(5-(butylthio)-4-(3,4-dichlorophenyl)thiazol-2-yl)-3-methyl-4-(2-nitrobenzyl)-1H-pyrazole-5-carboxylic Acid], the EC50 was over 80 µM.

Consider `Cc1nn(-c2nc(-c3ccc(Cl)c(Cl)c3)c(SC(C)C)s2)c(C(=O)O)c1C(O)c1ccccc1` (stereo not shown) [Compound 53, 1-(4-(3,4-dichlorophenyl)-5-(isopropylthio)thiazol-2-yl)-4-(hydroxy(phenyl)methyl)-3-methyl-1H-pyrazole-5-carboxylic Acid], for which the EC50 is over 50 µM. The figure for `Cc1nn(-c2nc(-c3ccc(-c4cccc(F)c4)nc3)c(SC(C)C)s2)c(C(=O)O)c1Br` [Compound 179, 4-bromo-1-(4-(6-(3-fluorophenyl)pyridin-3-yl)-5-(isopropylthio)thiazol-2-yl)-3-methyl-1H-pyrazole-5-carboxylic Acid] is 25 to 50 µM. For `Cc1nn(-c2nc(-c3ccc(Cl)c(Cl)c3)c(SC(C)C)s2)c(C(=O)O)c1-c1cc(Cl)cc(Cl)c1` [Compound 144, 4-(3,5-dichlorophenyl)-1-(4-(3,4-dichlorophenyl)-5-(isopropylthio)thiazol-2-yl)-3-methyl-1H-pyrazole-5-carboxylic Acid], the EC50 is under 1 µM. On to `Cc1nn(-c2nc(-c3cncc(C#N)c3)c(SC(C)C)s2)c(C(=O)O)c1-c1cccc(F)c1` [Compound 210, 1-(4-(5-cyanopyridin-3-yl)-5-(isopropylthio)thiazol-2-yl)-4-(3-fluorophenyl)-3-methyl-1H-pyrazole-5-carboxylic acid], for which the half-maximal effective concentration (EC50) was over 40 µM. The figure for `Cc1nn(-c2nc(-c3ccc(Cl)cc3)c(SC(C)C)s2)c(C(=O)O)c1-c1cccc(F)c1` [Compound 177, 1-(4-(4-chlorophenyl)-5-(isopropylthio)thiazol-2-yl)-4-(3-fluorophenyl)-3-methyl-1H-pyrazole-5-carboxylic Acid] is under 1 µM; for `Cc1nn(-c2nc(-c3ccc(Cl)c(Cl)c3)c(SC(C)C)s2)c(C(=O)O)c1Cc1ccccc1NS(C)(=O)=O` [Compound 121, 1-(4-(3,4-dichlorophenyl)-5-(isopropylthio)thiazol-2-yl)-3-methyl-4-(2-(methylsulfonamido)benzyl)-1H-pyrazole-5-carboxylic acid] it is over 50 µM; for `Cc1nn(-c2nc(-c3ccc(Cl)c(Cl)c3)c(SC(C)C)s2)c(C(=O)O)c1-c1ccn(C)c(=O)c1` [Compound 93, 1-(4-(3,4-dichlorophenyl)-5-(isopropylthio)thiazol-2-yl)-3-methyl-4-(1-methyl-2-oxo-1,2-dihydropyridin-4-yl)-1H-pyrazole-5-carboxylic acid] it is over 25 µM. `Cc1nn(-c2nc(-c3ccc(Cl)c(Cl)c3)c(SC(C)C)s2)c(C(=O)O)c1-c1cc(C)c(=O)n(C)c1` [Compound 94, 1-(4-(3,4-dichlorophenyl)-5-(isopropylthio)thiazol-2-yl)-4-(1,5-dimethyl-6-oxo-1,6-dihydropyridin-3-yl)-3-methyl-1H-pyrazole-5-carboxylic Acid]: the EC50 is over 25 µM.

As for `Cc1nn(-c2nc(-c3ccc(C(C)(F)F)cc3)c(SC(C)C)s2)c(C(=O)O)c1-c1cccc(F)c1` [Compound 240, 1-(4-(4-(1,1-difluoroethyl)phenyl)-5-(isopropylthio)thiazol-2-yl)-4-(3-fluorophenyl)-3-methyl-1H-pyrazole-5-carboxylic acid], the EC50 fell in the range of 1 to 5 µM. Regarding `Cc1nn(-c2nc(-c3ccc(F)cc3)c(SC(C)C)s2)c(C(=O)O)c1-c1cccc(F)c1` [Compound 186, 4-(3-fluorophenyl)-1-(4-(4-fluorophenyl)-5-(isopropylthio)thiazol-2-yl)-3-methyl-1H-pyrazole-5-carboxylic Acid], the EC50 lay within 1 to 5 µM.

On to `Cc1nn(-c2nc(-c3ccccc3)c(SC(C)C)s2)c(C(=O)O)c1-c1cnn(C)c1` [Compound 203, 1-(5-(isopropylthio)-4-phenylthiazol-2-yl)-1′,3-dimethyl-1H,1′H-[4,4′-bipyrazole]-5-carboxylic acid], for which the EC50 was over 40 µM.

As for `Cc1nn(-c2nc(-c3ccc(Cl)c(Cl)c3)c(SC(C)C)s2)c(C(=O)O)c1-c1cccc(CN)c1` [Compound 48, 4-(3-(aminomethyl)phenyl)-1-(4-(3,4-dichlorophenyl)-5-(isopropylthio)thiazol-2-yl)-3-methyl-1H-pyrazole-5-carboxylic acid], the EC50 was 25 to 50 µM. `Cc1nn(-c2nc(-c3ccc(Cl)cc3Cl)c(SC(C)C)s2)c(C(=O)O)c1-c1cccc(F)c1` [Compound 178, 1-(4-(2,4-dichlorophenyl)-5-(isopropylthio)thiazol-2-yl)-4-(3-fluorophenyl)-3-methyl-1H-pyrazole-5-carboxylic Acid]: the EC50 was in the range of 1 to 5 µM. The figure for `COc1cc(-c2c(C)nn(-c3nc(-c4ccc(C(F)(F)F)cc4)c(SC(C)C)s3)c2C(=O)O)ccc1F` [Compound 238, 4-(4-fluoro-3-methoxyphenyl)-1-(5-(isopropylthio)-4-(4-(trifluoromethyl)phenyl)thiazol-2-yl)-3-methyl-1H-pyrazole-5-carboxylic acid] is 1 to 5 µM. Take `COc1cccc(-c2nc(-n3nc(C)c(Cc4ccccc4NS(C)(=O)=O)c3C(=O)O)sc2SC(C)C)c1` [Compound 105, 1-(5-(isopropylthio)-4-(3-methoxyphenyl)thiazol-2-yl)-3-methyl-4-(2-(methylsulfonamido)benzyl)-1H-pyrazole-5-carboxylic acid]: the EC50 is over 80 µM. The figure for `Cc1nn(-c2nc(-c3ccc(Cl)c(Cl)c3)c(SC(C)C)s2)c(C(=O)N(C)c2nnc(C(F)(F)F)s2)c1-c1cc(C(F)(F)F)cc(C(F)(F)F)c1` [Compound 77, 4-(3,5-bis(trifluoromethyl)phenyl)-1-(4-(3,4-dichlorophenyl)-5-(isopropylthio)thiazol-2-yl)-N,3-dimethyl-N-(5-(trifluoromethyl)-1,3,4-thiadiazol-2-yl)-1H-pyrazole-5-carboxamide] is over 40 µM; for `Cc1nn(-c2nc(-c3ccc(Cl)c(Cl)c3)c(SC(C)C)s2)c(C(=O)O)c1-c1ccc(N)cc1` [Compound 123, 4-(4-aminophenyl)-1-(4-(3,4-dichlorophenyl)-5-(isopropylthio)thiazol-2-yl)-3-methyl-1H-pyrazole-5-carboxylic acid] it is 25 to 50 µM; for `Cc1nn(-c2nc(-c3ccc(Cl)c(Cl)c3)c(SC(C)C)s2)c(C(=O)O)c1-c1cncnc1` [Compound 72, 1-(4-(3,4-dichlorophenyl)-5-(isopropylthio)thiazol-2-yl)-3-methyl-4-(pyrimidin-5-yl)-1H-pyrazole-5-carboxylic Acid] it is 10 to 25 µM.

Regarding `COCCN(C)C(=O)c1c(-c2cccc(F)c2)c(C)nn1-c1nc(-c2ccc(C(F)(F)F)cc2)c(SC(C)C)s1` [Compound 248, 4-(3-fluorophenyl)-1-(5-(isopropylthio)-4-(4-(trifluoromethyl)phenyl)thiazol-2-yl)-N-(2-methoxyethyl)-N,3-dimethyl-1H-pyrazole-5-carboxamide], the EC50 was over 20 µM.

For the origin of these results see patent US10537558B2 (Bantam Pharmaceutical, LLC, priority 2015, dated 2020).
